Assay results as given in patent US7880010B2, “Crystalline forms of a dimethylphenyl compound” (Theravance, Inc., priority 2006, dated 2011).

Assays:
Assay in all cases: Radioligand binding assay for muscarinic receptors ([3H]-NMS displacement)
hM4 muscarinic receptor = target: T1, hM4 muscarinic receptor (Homo sapiens, UniProt P08173); settings: M4 muscarinic receptor subtype, CHO cell membranes, [3H]-NMS 1 nM
T1 construct: expressed in transfected cells; host or cells: CHO
T1 sequence (P08173 1-479): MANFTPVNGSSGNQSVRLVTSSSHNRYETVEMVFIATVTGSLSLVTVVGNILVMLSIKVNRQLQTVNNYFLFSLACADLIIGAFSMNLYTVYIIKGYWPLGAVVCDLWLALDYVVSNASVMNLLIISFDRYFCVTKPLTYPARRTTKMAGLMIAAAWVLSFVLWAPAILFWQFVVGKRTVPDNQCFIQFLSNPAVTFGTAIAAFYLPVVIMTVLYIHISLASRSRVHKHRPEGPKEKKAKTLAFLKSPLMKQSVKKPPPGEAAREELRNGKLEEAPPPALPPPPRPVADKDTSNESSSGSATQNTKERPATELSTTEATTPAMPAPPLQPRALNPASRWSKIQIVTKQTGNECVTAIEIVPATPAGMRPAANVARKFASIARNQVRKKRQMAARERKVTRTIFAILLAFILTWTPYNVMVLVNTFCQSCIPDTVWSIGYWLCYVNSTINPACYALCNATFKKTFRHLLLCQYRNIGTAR
Description: (§1) CHO cell lines stably expressing cloned human hM1, hM2, hM3 and hM4 muscarinic receptor subtypes, respectively, were grown to near confluency in Hams F-12 media supplemented with 10% FBS and 250 μg/mL Geneticin. The cells were grown in a 5% CO2, 37° C. incubator and lifted with 2 mM EDTA in dPBS. Cells were collected by 5 minute centrifugation at 650×g, and cell pellets were either stored frozen at −80° C. or membranes were prepared immediately for use. For membrane preparation, cell pellets were resuspended in lysis buffer and homogenized with a Polytron PT-2100 tissue disrupter (Kinematica AG; 20 seconds×2 bursts). Crude membranes were centrifuged at 40,000×g for 15 minutes at 4° C. The membrane pellet was then resuspended with re-suspension buffer and homogenized again with the Polytron tissue disrupter. The protein concentration of the membrane suspension was determined by the method described in Lowry et al., 1951, Journal of Biochemistry, 193, 265. All membranes were stored frozen in aliquots at −80° C. or used immediately. Aliquots of prepared hM5 receptor membranes were purchased directly from PerkinElmer, Inc. (Wellesley, Mass.) and stored at −80° C. until use.
(§2) Radioligand binding assays for cloned muscarinic receptors were performed in 96-well microtiter plates in a total assay volume of 100 μL. CHO cell membranes stably expressing either the hM1, hM2, hM3, hM4 or hM5 muscarinic subtype were diluted in assay buffer to the following specific target protein concentrations (μg/well): 10 μg for hM1, 10-15 μg for hM2, 10-20 μg for hM3, 10-20 μg for hM4, and 10-12 μg for hM5 to get similar signals (cpm). The membranes were briefly homogenized using a Polytron tissue disrupter (10 seconds) prior to assay plate addition. Saturation binding studies for determining KD values of the radioligand were performed using L-[N-methyl-^3H]scopolamine methyl chloride ([^3H]-NMS) (TRK666, 84.0 Ci/mmol, Amersham Pharmacia Biotech, Buckinghamshire, England) at concentrations ranging from 0.001 nM to 20 nM. Displacement assays for determination of Ki values of test compounds were performed with [^3H]-NMS at 1 nM and eleven different test compound concentrations. The test compounds were initially dissolved to a concentration of 400 μM in dilution buffer and then serially diluted 5× with dilution buffer to final concentrations ranging from 10 pM to 100 μM. The addition order and volumes to the assay plates were as follows: 25 μL radioligand, 25 μL diluted test compound, and 50 μL membranes. Assay plates were incubated for 60 minutes at 37° C. Binding reactions were terminated by rapid filtration over GF/B glass fiber filter plates (PerkinElmer, Inc.) pre-treated in 1% BSA. Filter plates were rinsed three times with wash buffer (10 mM HEPES) to remove unbound radioactivity. The plates were then air-dried and 50 μL Microscint-20 liquid scintillation fluid (PerkinElmer, Inc.) were added to each well. The plates were then counted in a PerkinElmer Topcount liquid scintillation counter (PerkinElmer, Inc.). Binding data were analyzed by nonlinear regression analysis with the GraphPad Prism Software package (GraphPad Software, Inc., San Diego, Calif.) using the one-site competition model. Ki values for test compounds were calculated from observed IC50 values and the KD value of the radioligand using the Cheng-Prusoff equation (Cheng Y; Prusoff W H. (1973) Biochemical Pharmacology, 22(23):3099-108). […]

hM3 muscarinic receptor = target: T2, hM3 muscarinic receptor (Homo sapiens, UniProt P20309); settings: M3 muscarinic receptor subtype, CHO cell membranes, [3H]-NMS 1 nM
T2 construct: expressed in transfected cells; host or cells: CHO
T2 sequence (P20309 whole entry): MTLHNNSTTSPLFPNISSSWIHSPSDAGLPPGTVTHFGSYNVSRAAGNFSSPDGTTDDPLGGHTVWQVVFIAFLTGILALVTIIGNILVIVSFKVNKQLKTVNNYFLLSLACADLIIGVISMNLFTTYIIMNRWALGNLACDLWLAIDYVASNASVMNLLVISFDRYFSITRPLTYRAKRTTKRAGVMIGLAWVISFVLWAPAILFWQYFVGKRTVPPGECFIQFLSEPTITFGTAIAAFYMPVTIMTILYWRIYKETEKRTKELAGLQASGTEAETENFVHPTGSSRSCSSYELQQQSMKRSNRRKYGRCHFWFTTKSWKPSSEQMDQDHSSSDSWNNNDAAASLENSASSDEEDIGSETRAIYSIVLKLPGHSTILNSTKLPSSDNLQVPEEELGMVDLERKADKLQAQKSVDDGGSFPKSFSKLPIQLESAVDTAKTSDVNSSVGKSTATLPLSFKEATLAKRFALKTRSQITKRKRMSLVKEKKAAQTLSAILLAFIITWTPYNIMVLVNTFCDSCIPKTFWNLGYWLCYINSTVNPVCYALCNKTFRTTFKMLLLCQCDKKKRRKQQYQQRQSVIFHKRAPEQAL
Description: as §1, §2

hM1 muscarinic receptor = target: T3, hM1 muscarinic receptor (Homo sapiens, UniProt P11229); settings: M1 muscarinic receptor subtype, CHO cell membranes, [3H]-NMS 1 nM
T3 construct: expressed in transfected cells; host or cells: CHO
T3 sequence (P11229 1-460): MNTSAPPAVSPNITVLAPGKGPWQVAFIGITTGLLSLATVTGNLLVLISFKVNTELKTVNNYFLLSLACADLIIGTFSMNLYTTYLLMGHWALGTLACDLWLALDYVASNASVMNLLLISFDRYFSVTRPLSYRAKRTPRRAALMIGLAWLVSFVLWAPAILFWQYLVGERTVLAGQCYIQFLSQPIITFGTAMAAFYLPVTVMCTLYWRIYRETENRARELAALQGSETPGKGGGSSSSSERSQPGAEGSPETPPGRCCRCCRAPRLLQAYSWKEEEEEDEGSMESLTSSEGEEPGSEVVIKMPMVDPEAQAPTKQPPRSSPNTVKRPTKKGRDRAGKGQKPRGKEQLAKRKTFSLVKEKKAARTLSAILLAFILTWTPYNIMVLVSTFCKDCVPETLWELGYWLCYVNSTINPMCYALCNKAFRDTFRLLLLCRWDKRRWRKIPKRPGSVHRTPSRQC
Description: as §1, §2

Measured: Ki

Cc1cc(NC(=O)CCN2CCC(OC(=O)Nc3ccccc3-c3ccccc3)CC2)c(C)cc1CNC[C@H](O)c1ccc(O)c(NC=O)c1 [compound of formula I, biphenyl-2-ylcarbamic acid 1-[2-(4-{[(R)-2-(3-formylamino-4-hydroxyphenyl)-2-hydroxyethylamino]methyl}-2,5-dimethylphenylcarbamoyl)ethyl]-piperidin-4-yl ester]
< 10 nM: all assays above
